Assays:
Format in all cases: cell-based
[1] = system: Staphylococcus aureus ATCC29213; assay: MIC by broth microdilution (CLSI) against S. aureus; conditions: read-out: minimum inhibitory concentration (MIC) S. aureus
Description: (§1) The term “minimum inhibitory concentration” or “MIC” defines the lowest concentration of a test compound that is needed to inhibit growth of a bacterial isolate in vitro. A common method for determining the MIC of an antibiotic is to prepare several tubes containing serial dilutions of the test compound that are then inoculated with the bacterial isolate of interest.
(§2) MIC data were determined by broth microdilution according to CLSI protocols described in Methods for Antimicrobial Susceptibility Testing of Anaerobic Bacteria; Approved Standard-Seventh Edition [M11-A7, Vol. 27, No 2, January 2007] and Methods for Dilution Antimicrobial Susceptibility Tests for Bacteria That Grow Aerobically; Approved Standard—Seventh Edition [M7-A7, Vol. 26, No 2, January 2006].
(§3) The bacterial strains used were: • Bacteroides fragilis ATCC 25285 • Escherichia coli ATCC25922 • Lactobacillus paracasei Z1 83 • Bifidobacterium dentium NCTC 11816 • B. adolescentis MWR144 • Staphylococcus aureus ATCC29213 • Enterococcus faecalis ATCC29212

[2] = system: Escherichia coli ATCC25922; assay: MIC by broth microdilution (CLSI) against E. coli; conditions: read-out: minimum inhibitory concentration (MIC) E. coli
Description: as §1, §2, §3

[3] = system: Bifidobacterium dentium NCTC 11816; assay: MIC by broth microdilution (CLSI) against B. dentium; conditions: NCTC11816, read-out: minimum inhibitory concentration (MIC) B. dentium
Description: as §1, §2, §3

[4] = system: Bacteroides fragilis ATCC 25285; assay: MIC by broth microdilution (CLSI) against B. fragilis; conditions: ATCC25285, read-out: minimum inhibitory concentration (MIC) B. fragilis
Description: as §1, §2, §3

[5] = system: Clostridium difficile ATCC700057; assay: MIC by broth microdilution (CLSI) against Clostridium difficile; conditions: Clostridioides difficile, read-out: minimum inhibitory concentration (MIC) C. difficile
Description: as §1, §2

[6] = system: Lactobacillus paracasei Z1 83; assay: MIC by broth microdilution (CLSI) against L. paracasei; conditions: Lacticaseibacillus paracasei, Z183, read-out: minimum inhibitory concentration (MIC) L. paracasei
Description: as §1, §2, §3

[7] = system: Enterococcus faecalis ATCC29212; assay: MIC by broth microdilution (CLSI) against E. faecalis; conditions: read-out: minimum inhibitory concentration (MIC) E. faecalis
Description: as §1, §2, §3

B. adolescentis MWR144 = assay: MIC by broth microdilution (CLSI) against B. adolescentis; conditions: Bifidobacterium adolescentis, read-out: minimum inhibitory concentration (MIC) B. adolescentis
Description: as §1, §2, §3

Row | SMILES | MIC [1] | MIC [2] | MIC [3] | MIC [4] | MIC [5] | MIC [6] | MIC [7] | MIC (B. adolescentis MWR144)
1 | c1cc(-c2nc3cc(-c4ccc5[nH]c(-c6ccc7c(c6)OCO7)nc5c4)ccc3[nH]2)ccn1 [Example 9, 2-(benzo[d][1,3]dioxol-5-yl)-2′-(pyridin-4-yl)-1H,1′H-5,5′-bibenzo[d]imidazole] | ≥ 64 µg/mL | ≥ 64 µg/mL | ≥ 64 µg/mL | ≥ 64 µg/mL | ≤ 1 µg/mL | ≥ 64 µg/mL | ≥ 64 µg/mL | ≥ 64 µg/mL
2 | c1cncc(-c2nc3cc(-c4ccc5[nH]c(-c6ccc7nccn7c6)nc5c4)ccc3[nH]2)c1 [Example 12, 2-(imidazo[1,2-a]pyridin-6-yl)-2′-(pyridin-3-yl)-1H,1′H-5,5′-bibenzo[d]imidazole] | ≥ 64 µg/mL | ≥ 64 µg/mL | ≥ 64 µg/mL | ≥ 64 µg/mL | ≤ 1 µg/mL | ≥ 64 µg/mL | ≥ 64 µg/mL | ≥ 64 µg/mL
3 | c1cc(-c2nc3cc(-c4ccc5[nH]c(-c6ccc7nccn7c6)nc5c4)ccc3[nH]2)ccn1 [Example 8, 2-(imidazo[1,2-a]pyridin-6-yl)-2′-(pyridin-4-yl)-1H,1′H-5,5′-bibenzo[d]imidazole] | ≥ 64 µg/mL | ≥ 64 µg/mL | ≥ 64 µg/mL | ≥ 64 µg/mL | ≤ 1 µg/mL | ≥ 64 µg/mL | ≥ 64 µg/mL | ≥ 64 µg/mL
4 | c1cc(-c2nc3ccc(-c4ccc5[nH]c(-c6ccc7[nH]ccc7c6)nc5c4)cc3[nH]2)ccn1 [Example 6, 2-(1H-indol-5-yl)-2′-(pyridin-4-yl)-1H,3′H-5,5′-bibenzo[d]imidazole] | ≤ 32 µg/mL | ≥ 64 µg/mL | ≥ 64 µg/mL | ≥ 64 µg/mL | ≤ 1 µg/mL | ≥ 64 µg/mL | ≥ 64 µg/mL | ≤ 32 µg/mL
5 | c1cc(-c2nc3cc(-c4ccc5[nH]c(-c6ccc7occc7c6)nc5c4)ccc3[nH]2)ccn1 [Example 3, 2-(benzofuran-5-yl)-2′-(pyridin-4-yl)-1H,1′H-5,5′-bibenzo[d]imidazole] | ≤ 1 µg/mL | ≥ 64 µg/mL | ≤ 32 µg/mL | ≥ 64 µg/mL | ≤ 1 µg/mL | ≤ 32 µg/mL | ≤ 1 µg/mL | ≤ 4 µg/mL
6 | c1ccc2sc(-c3nc4cc(-c5ccc6[nH]c(-c7ccncc7)nc6c5)ccc4[nH]3)cc2c1 [Example 2, 2-(benzo[b]thiophen-2-yl)-2′-(pyridin-4-yl)-1H,1′H-5,5′-bibenzo[d]imidazole] | ≥ 64 µg/mL | ≥ 64 µg/mL | ≥ 64 µg/mL | ≥ 64 µg/mL | ≤ 4 µg/mL | ≥ 64 µg/mL | ≥ 64 µg/mL | ≥ 64 µg/mL
7 | c1cc(-c2nc3ccc(-c4ccc5[nH]c(-c6ccc7c(c6)CCO7)nc5c4)cc3[nH]2)ccn1 [Example 7, 2-(2,3-dihydrobenzofuran-5-yl)-2′-(pyridin-4-yl)-1H,3′H-5,5′-bibenzo[d]imidazole] | ≥ 64 µg/mL | ≥ 64 µg/mL | ≥ 64 µg/mL | ≥ 64 µg/mL | ≤ 1 µg/mL | ≥ 64 µg/mL | ≤ 4 µg/mL | ≤ 4 µg/mL
8 | c1cnc2sc(-c3nc4cc(-c5ccc6[nH]c(-c7ccncc7)nc6c5)ccc4[nH]3)cc2c1 [Example 1, 2-(2′-(pyridin-4-yl)-1H,1′H-5,5′-bibenzo[d]imidazol-2-yl)thieno[2,3-b]pyridine] | ≥ 64 µg/mL | ≥ 64 µg/mL | ≥ 64 µg/mL | ≥ 64 µg/mL | ≤ 1 µg/mL | ≥ 64 µg/mL | ≥ 64 µg/mL | ≤ 32 µg/mL
9 | c1ccc2oc(-c3nc4cc(-c5ccc6[nH]c(-c7ccncc7)nc6c5)ccc4[nH]3)cc2c1 [Example 10, 2-(benzofuran-2-yl)-2′-(pyridin-4-yl)-1H,1′H-5,5′-bibenzo[d]imidazole] | ≤ 32 µg/mL | ≥ 64 µg/mL | ≥ 64 µg/mL | ≥ 64 µg/mL | ≤ 1 µg/mL | ≥ 64 µg/mL | ≥ 64 µg/mL | ≤ 32 µg/mL
10 | c1cc(-c2nc3ccc(-c4ccc5[nH]c(-c6ccc7[nH]cnc7c6)nc5c4)cc3[nH]2)ccn1 [Example 4, 6-(2′-(pyridin-4-yl)-1H,3′H-5,5′-bibenzo[d]imidazol-2-yl)benzo[d]imidazole] | ≥ 64 µg/mL | ≥ 64 µg/mL | ≥ 64 µg/mL | ≥ 64 µg/mL | ≤ 1 µg/mL | ≥ 64 µg/mL | ≥ 64 µg/mL | ≥ 64 µg/mL
11 | c1cc(-c2nc3ccc(-c4ccc5[nH]c(-c6ccc7sccc7c6)nc5c4)cc3[nH]2)ccn1 [Example 5, 2-(benzo[b]thiophen-5-yl)-2′-(pyridin-4-yl)-1H,3′H-5,5′-bibenzo[d]imidazole] | ≥ 64 µg/mL | ≥ 64 µg/mL | ≥ 64 µg/mL | ≥ 64 µg/mL | ≤ 1 µg/mL | ≥ 64 µg/mL | ≤ 32 µg/mL | ≤ 32 µg/mL
12 | c1cc(-c2nc3cc(-c4ccc5[nH]c(-c6cc7ccncc7s6)nc5c4)ccc3[nH]2)ccn1 [Example 11, 2-(2′-(pyridin-4-yl)-1H,1′H-[5,5′-bibenzo[d]imidazol]-2-yl)thieno[2,3-c]pyridine] | ≥ 64 µg/mL | ≥ 64 µg/mL | ≥ 64 µg/mL | ≥ 64 µg/mL | ≤ 1 µg/mL | ≥ 64 µg/mL | ≥ 64 µg/mL | ≥ 64 µg/mL
13 | c1cncc(-c2nc3cc(-c4ccc5[nH]c(-c6cc7cccnc7s6)nc5c4)ccc3[nH]2)c1 [Example 13, 2-(2′-(pyridin-3-yl)-1H,1′H-[5,5′-bibenzo[d]imidazol]-2-yl)thieno[2,3-b]pyridine] | ≥ 64 µg/mL | ≥ 64 µg/mL | ≥ 64 µg/mL | ≥ 64 µg/mL | ≤ 1 µg/mL | ≥ 64 µg/mL | ≥ 64 µg/mL | ≥ 64 µg/mL

— US9278091B2, “Compounds for the treatment of Clostridium difficile associated disease” (Summit Therapeutics PLC, priority 2010, dated 2016)
